According to patent publication US9113629B2, “4-amino-6-(4-substituted-phenyl)-picolinates and 6-amino-2-(4-substituted-phenyl)-pyrimidine-4-carboxylates and their use as herbicides” (DOW AGROSCIENCES LLC, priority 2013, dated 2015):
Where two headings read alike, the source gives them in different places.

What was measured:
[1] = tested on: test plant species in Direct Seeded Rice; experiment: Postemergence herbicidal activity in direct seeded rice (Table 13); format: in vivo; conditions: for GR50 BRAPP / GR80 BRAPP / GR50 CYPSS / GR80 CYPSS / GR50 ECHSS / GR80 ECHSS / GR50 LEFSS / GR80 LEFSS / GR20 ORYSS / GR50 SCPJU / GR80 SCPJU / GR50 SEBEX / GR80 SEBEX: probit analysis; for GR20 ORYSS: ORYSS: Oryza sativa (crop); for pest or weed control at 35 g/ha / pest or weed control at 70 g/ha: post-emergence, 504 h; for pest or weed control at 35 g/ha: 35 g ai/ha; for pest or weed control at 70 g/ha: 70 g ai/ha
In short: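 Greenhouse-grown plants at the second or third true leaf stage were sprayed postemergence at 187 L/ha with compound in acetone/DMSO (final 16.2%/0.5%) plus aqueous Agri-dex crop oil concentrate; controls got solvent blank. Injury was rated visually 0–100% after 20-22 days, and GR20, GR50, GR80 and GR90 derived by probit analysis.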

[2] = tested on: STEME: common chickweed (Stellaria media); experiment: Post-emergent Test III, herbicidal activity in wheat and barley; format: in vivo; conditions: for pest or weed control at 35 g/ha / pest or weed control at 70 g/ha / pest or weed control at 140 g/ha: Stellaria media, post-emergence, 504 h, read-out: Visual Growth Reduction (%) 21 Days After Application STEME; for pest or weed control at 35 g/ha: 35 g ai/ha; for pest or weed control at 70 g/ha: 70 g ai/ha; for pest or weed control at 140 g/ha: 140 g ai/ha; for GR50 STEME / GR80 STEME: probit analysis, 21 days after application; for GR50 STEME: dose for growth reduction of 50 percent; for GR80 STEME: dose for growth reduction of 80 percent
In short: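 Plants at the second to third true-leaf stage, grown in a greenhouse at about 18/17 °C with a 14 h photoperiod, were sprayed post-emergence at 187 L/ha with the high rate and ½× to 1/16× serial dilutions in an acetone/DMSO/crop-oil/surfactant carrier. Injury was rated visually at 21 d on a 0–100% scale, and GR20–GR90 were derived by probit analysis.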

[3] = BRAPP: broadleaf signalgrass, Brachiaria platyphylla
[4] = CYPSS: sedge (Cyperus difformis, esculentus, iria)
[5] = ECHSS: barnyardgrass (Echinochloa crus-galli), junglerice (Echinochloa colonum)
[6] = LEFSS: sprangletop (Leptochloa chinensis, Leptochloa dubia)
[7] = SCPJU: Japanese bulrush, Scirpus juncoides
[8] = SEBEX: hemp sesbania, Sesbania exaltata
[9] = BRAPP: broadleaf signalgrass, Brachiaria platyphylla, read-out: Visual Growth Reduction (%) 21 Days After Application BRAPP
[10] = CYPSS: sedge (Cyperus difformis, esculentus, iria), read-out: Visual Growth Reduction (%) 21 Days After Application CYPSS
[11] = ECHSS: barnyardgrass (Echinochloa crus-galli), junglerice (Echinochloa colonum), read-out: Visual Growth Reduction (%) 21 Days After Application ECHSS
[12] = LEFSS: sprangletop (Leptochloa chinensis, Leptochloa dubia), read-out: Visual Growth Reduction (%) 21 Days After Application LEFSS
[13] = ORYSS: Oryza sativa, read-out: Visual Growth Reduction (%) 21 Days After Application ORYSS
[14] = SCPJU: Japanese bulrush, Scirpus juncoides, read-out: Visual Growth Reduction (%) 21 Days After Application SCPJU
[15] = SEBEX: hemp sesbania, Sesbania exaltata, read-out: Visual Growth Reduction (%) 21 Days After Application SEBEX

SMILES	GR50 BRAPP [1, 3]	GR80 BRAPP [1, 3]	GR50 CYPSS [1, 4]	GR80 CYPSS [1, 4]	GR50 ECHSS [1, 5]	GR80 ECHSS [1, 5]	GR50 LEFSS [1, 6]	GR80 LEFSS [1, 6]	GR20 ORYSS [1]	GR50 SEBEX [1, 8]	GR80 SEBEX [1, 8]	pest or weed control at 35 g/ha [1, 9]	pest or weed control at 70 g/ha [1, 9]	pest or weed control at 35 g/ha [1, 10]	pest or weed control at 70 g/ha [1, 10]	pest or weed control at 35 g/ha [1, 11]	pest or weed control at 70 g/ha [1, 11]	pest or weed control at 35 g/ha [1, 12]	pest or weed control at 70 g/ha [1, 12]	pest or weed control at 35 g/ha [1, 13]	also measured
COc1c(N)nc(-c2ccc(Br)c(F)c2F)nc1C(=O)O [Compound 8]	4 g ai/ha	9 g ai/ha	1 g ai/ha	1 g ai/ha	2 g ai/ha	6 g ai/ha	>70 g ai/ha	>70 g ai/ha	2 g ai/ha	3 g ai/ha	5 g ai/ha	95 to 100%	95 to 100%	95 to 100%	95 to 100%	95 to 100%	95 to 100%	0 to 29%	30 to 44%	75 to 84%	GR50 SCPJU [1, 7]: 1 g ai/ha; GR80 SCPJU [1, 7]: 1 g ai/ha; pest or weed control at 70 g/ha [1, 13]: 85 to 94%; pest or weed control at 35 g/ha [1, 14]: 95 to 100%; pest or weed control at 70 g/ha [1, 14]: 95 to 100%; pest or weed control at 35 g/ha [1, 15]: 95 to 100%; pest or weed control at 70 g/ha [1, 15]: 95 to 100%
Nc1cc(-c2ccc(Br)c(F)c2F)nc(C(=O)O)c1Cl [Compound 91]																					pest or weed control at 35 g/ha [2]: 0 to 29%; pest or weed control at 70 g/ha [2]: 30 to 44%; pest or weed control at 140 g/ha [2]: 45 to 59%; GR50 STEME [2]: >140 g ai/ha; GR80 STEME [2]: >140 g ai/ha
COC(=O)c1nc(-c2ccc(Br)c(F)c2F)nc(N)c1OC [Compound 122, methyl 6-amino-2-(4-bromo-2,3-difluorophenyl)-5-methoxypyrimidine-4-carboxylate]	5 g ai/ha	42 g ai/ha	1 g ai/ha	1 g ai/ha	6 g ai/ha	47 g ai/ha	>70 g ai/ha	>70 g ai/ha	70 g ai/ha	1 g ai/ha	1 g ai/ha	75 to 84%	85 to 94%	95 to 100%	95 to 100%	75 to 84%	85 to 94%	0 to 29%	0 to 29%	0 to 29%	GR50 SCPJU [1, 7]: 1 g ai/ha; GR80 SCPJU [1, 7]: 1 g ai/ha; pest or weed control at 70 g/ha [1, 13]: 0 to 29%; pest or weed control at 35 g/ha [1, 14]: 95 to 100%; pest or weed control at 70 g/ha [1, 14]: 95 to 100%; pest or weed control at 35 g/ha [1, 15]: 95 to 100%; pest or weed control at 70 g/ha [1, 15]: 95 to 100%
Nc1c(F)c(-c2ccc(C(F)(F)F)c(F)c2)nc(C(=O)O)c1Cl [Compound 134]	3 g ai/ha	12 g ai/ha	6 g ai/ha	13 g ai/ha	1 g ai/ha	1 g ai/ha	6 g ai/ha	15 g ai/ha	5 g ai/ha	1 g ai/ha	1 g ai/ha	95 to 100%	95 to 100%	95 to 100%	95 to 100%	95 to 100%	95 to 100%	95 to 100%	95 to 100%	60 to 74%	GR50 SCPJU [1, 7]: 1 g ai/ha; GR80 SCPJU [1, 7]: 1 g ai/ha; pest or weed control at 70 g/ha [1, 13]: 85 to 94%; pest or weed control at 70 g/ha [1, 14]: 95 to 100%; pest or weed control at 35 g/ha [1, 15]: 95 to 100%; pest or weed control at 70 g/ha [1, 15]: 95 to 100%
COC(=O)c1nc(-c2ccc(C(F)(F)F)c(F)c2)c(F)c(N)c1Cl [Compound 165]	12 g ai/ha	27 g ai/ha	19 g ai/ha	67 g ai/ha	10 g ai/ha	24 g ai/ha	24 g ai/ha	56 g ai/ha	44 g ai/ha	1 g ai/ha	1 g ai/ha	85 to 94%	95 to 100%	75 to 84%	75 to 84%	85 to 94%	95 to 100%	0 to 29%	95 to 100%	0 to 29%	pest or weed control at 70 g/ha [1, 13]: 30 to 44%; pest or weed control at 35 g/ha [1, 15]: 95 to 100%; pest or weed control at 70 g/ha [1, 15]: 95 to 100%
Nc1c(F)c(-c2ccc(Cl)c(F)c2)nc(C(=O)O)c1Cl [Compound 217]	3 g ai/ha	5 g ai/ha	5 g ai/ha	11 g ai/ha	1 g ai/ha	1 g ai/ha	1 g ai/ha	3 g ai/ha	10 g ai/ha	1 g ai/ha	1 g ai/ha	95 to 100%	95 to 100%	95 to 100%	95 to 100%	95 to 100%	95 to 100%	95 to 100%	95 to 100%	45 to 59%	GR50 SCPJU [1, 7]: 1 g ai/ha; GR80 SCPJU [1, 7]: 1 g ai/ha; pest or weed control at 70 g/ha [1, 13]: 75 to 84%; pest or weed control at 35 g/ha [1, 14]: 95 to 100%; pest or weed control at 70 g/ha [1, 14]: 95 to 100%; pest or weed control at 35 g/ha [1, 15]: 95 to 100%; pest or weed control at 70 g/ha [1, 15]: 95 to 100%; pest or weed control at 35 g/ha [2]: 60 to 74%; pest or weed control at 70 g/ha [2]: 75 to 84%; pest or weed control at 140 g/ha [2]: 75 to 84%; GR50 STEME [2]: 28 g ai/ha; GR80 STEME [2]: 88 g ai/ha
